Measured values taken from US8969388B1, “Substituted pyrazolone compounds and methods of use” (Calitor Sciences, LLC, priority 2012, dated 2015).
Read-outs that look alike come from different tables or passages of the source.

How the values were obtained:
KDR (h) = target: T1, KDR (h) (Homo sapiens, UniProt P35968); assay: KINOMEscan competition binding assay, KDR (h)
T1 construct: host or cells: E. coli BL21-derived host (T7 phage) or HEK-293
Method: (§1) Alternatively, the kinase activities of the compounds can be measured using KINOMEscan™, which is based on a competition binding assay that quantitatively measures the ability of a compound to compete with an immobilized, active-site directed ligand. The assay was performed by combining three components: DNA-tagged kinase; immobilized ligand; and a test compound. The ability of the test compound to compete with the immobilized ligand was measured via quantitative PCR of the DNA tag.
(§2) For most assays, kinase-tagged T7 phage strains were prepared in an E. coli host derived from the BL21 strain. E. coli were grown to log-phase and infected with T7 phage and incubated with shaking at 32° C. until lysis. The lysates were centrifuged and filtered to remove cell debris. The remaining kinases were produced in HEK-293 cells and subsequently tagged with DNA for qPCR detection. Streptavidin-coated magnetic beads were treated with biotinylated small molecule ligands for 30 minutes at room temperature to generate affinity resins for kinase assays. The liganded beads were blocked with excess biotin and washed with blocking buffer (SEABLOCK™ (Pierce), 1% BSA, 0.05% TWEEN®20, 1 mM DTT) to remove unbound ligand and to reduce nonspecific binding. Binding reactions were assembled by combining kinases, liganded affinity beads, and test compounds in 1× binding buffer (20% SEABLOCK™, 0.17×PBS, 0.05% TWEEN®20, 6 mM DTT). All reactions were performed in polystyrene 96-well plates in a final volume of 0.135 mL. The assay plates were incubated at room temperature with shaking for 1 hour and the affinity beads were washed with wash buffer (1×PBS, 0.05% TWEEN®20). The beads were then re-suspended in elution buffer (1×PBS, 0.05% TWEEN®20, 0.5 μM non-biotinylated affinity ligand) and incubated at room temperature with shaking for 30 minutes. The kinase concentration in the eluates was measured by qPCR.
(§3) The kinase assays described herein were performed using KINOMEscan™ Profiling Service at DiscoveRx Corporation, 42501 Albrae St. Fremont, Calif.

c-Met (h) = target: T2, c-Met (h) (Homo sapiens, UniProt P08581); assay: KINOMEscan competition binding assay, c-Met (h)
T2 construct: host or cells: E. coli BL21-derived host (T7 phage) or HEK-293
Method: as §1, §2, §3

U87MG glioblastoma cells = assay: U87MG tumor xenograft model, tumor growth inhibition; type: in vivo, athymic nude mice (BALB/cA nu/nu); settings: mice, oral gavage
Method: The efficacy of compounds disclosed herein was evaluated in a standard murine model of tumorigenesis. Human tumor cells (U87MG glioblastoma cells from ATCC) were expended in culture, harvested, and injected subcutaneously onto the rear flank of 6-7 week old female athymic nude mice (BALB/cA nu/nu, Hunan SLAC Laboratory Animal, Co.) (n=6-10 for vehicle group and for each dosing group). When tumors reached a volume of 100-250 mm^3, animals were randomly divided into vehicle control (for example, 5% DMSO+70% Captisol® (30%), 7% HCl (pH1), 18% Captisol® (30%); or 7% DMSO, 7% HCl (pH1), 70% Captisol® (30%), 16% Captisol® (30%), or the like) and compound groups. Subsequent administration of compound by oral gavage begins anywhere from day 0 to day 15 post tumor cell challenge and generally continues with once a day for the duration of the experiment.
Progression of tumor growth is assessed by tumor volumes and recorded as a function of time. The long (L) and short (W) axes of the subcutaneous tumors were measured with calipers twice weekly, and the tumor volume (TV) calculated as (L×W^2)/2). TGI was calculated from the difference between the median tumor volumes of vehicle-treated and drug-treated mice, expressed as a percentage of the median tumor volume of the vehicle-treated control group, by the following relation:
[formula] Initial statistical analysis is done by repeated measures analysis of variance (RMANOVA), followed by Scheffe psot hoc testing for multiple comparisons. Vehicle alone (5% DMSO+70% Captisol® (30%), 7% HCl (pH1), 18% Captisol® (30%); or 7% DMSO, 7% HCl (pH1), 70% Captisol® (30%), 16% Captisol® (30%), or the like) is the negative control.

[1] = Pharmacokinetics after intravenous and oral administration in rats; type: in vivo; settings: for F: oral bioavailability, oral dose not given; for AUC(0-t) / half-life / Vd: rat, plasma; for clearance (CL) after iv dosing / AUC(0-t) / half-life / Vd: iv dosing; for Vd: read-out: Vss
Method: The compounds disclosed herein are assessed in pharmacokinetic studies in mice, rats, dogs or monkeys. The compounds are administered as a water solution, 2% HPMC+1% TWEEN®80 in water solution, 5% DMSO+5% solutol in saline, 4% MC suspension or capsule. For the intravenous administration, the animals are generally given at 1 or 2 mg/kg dose. For the oral (p.o.) dosing, mice and rats are generally given 5 or 10 mg/kg dose, and dogs and monkeys are generally given 10 mg/kg dose. The blood samples (0.3 mL) are drawn at 0.25, 0.5, 1.0, 2.0, 3.0, 4.0, 6.0, 8.0, 12 and 24 h time points or 0.083, 0.25, 0.5, 1.0, 2.0, 4.0, 6.0, 8.0 and 24 h time points and centrifuged at 3,000 or 4000 rpm for 2 to 10 min. The plasma solutions are collected, stored at −20° C. or −70° C. until analyzed by LC/MS/MS as described above.

T2 sequence (P08581 25-1390): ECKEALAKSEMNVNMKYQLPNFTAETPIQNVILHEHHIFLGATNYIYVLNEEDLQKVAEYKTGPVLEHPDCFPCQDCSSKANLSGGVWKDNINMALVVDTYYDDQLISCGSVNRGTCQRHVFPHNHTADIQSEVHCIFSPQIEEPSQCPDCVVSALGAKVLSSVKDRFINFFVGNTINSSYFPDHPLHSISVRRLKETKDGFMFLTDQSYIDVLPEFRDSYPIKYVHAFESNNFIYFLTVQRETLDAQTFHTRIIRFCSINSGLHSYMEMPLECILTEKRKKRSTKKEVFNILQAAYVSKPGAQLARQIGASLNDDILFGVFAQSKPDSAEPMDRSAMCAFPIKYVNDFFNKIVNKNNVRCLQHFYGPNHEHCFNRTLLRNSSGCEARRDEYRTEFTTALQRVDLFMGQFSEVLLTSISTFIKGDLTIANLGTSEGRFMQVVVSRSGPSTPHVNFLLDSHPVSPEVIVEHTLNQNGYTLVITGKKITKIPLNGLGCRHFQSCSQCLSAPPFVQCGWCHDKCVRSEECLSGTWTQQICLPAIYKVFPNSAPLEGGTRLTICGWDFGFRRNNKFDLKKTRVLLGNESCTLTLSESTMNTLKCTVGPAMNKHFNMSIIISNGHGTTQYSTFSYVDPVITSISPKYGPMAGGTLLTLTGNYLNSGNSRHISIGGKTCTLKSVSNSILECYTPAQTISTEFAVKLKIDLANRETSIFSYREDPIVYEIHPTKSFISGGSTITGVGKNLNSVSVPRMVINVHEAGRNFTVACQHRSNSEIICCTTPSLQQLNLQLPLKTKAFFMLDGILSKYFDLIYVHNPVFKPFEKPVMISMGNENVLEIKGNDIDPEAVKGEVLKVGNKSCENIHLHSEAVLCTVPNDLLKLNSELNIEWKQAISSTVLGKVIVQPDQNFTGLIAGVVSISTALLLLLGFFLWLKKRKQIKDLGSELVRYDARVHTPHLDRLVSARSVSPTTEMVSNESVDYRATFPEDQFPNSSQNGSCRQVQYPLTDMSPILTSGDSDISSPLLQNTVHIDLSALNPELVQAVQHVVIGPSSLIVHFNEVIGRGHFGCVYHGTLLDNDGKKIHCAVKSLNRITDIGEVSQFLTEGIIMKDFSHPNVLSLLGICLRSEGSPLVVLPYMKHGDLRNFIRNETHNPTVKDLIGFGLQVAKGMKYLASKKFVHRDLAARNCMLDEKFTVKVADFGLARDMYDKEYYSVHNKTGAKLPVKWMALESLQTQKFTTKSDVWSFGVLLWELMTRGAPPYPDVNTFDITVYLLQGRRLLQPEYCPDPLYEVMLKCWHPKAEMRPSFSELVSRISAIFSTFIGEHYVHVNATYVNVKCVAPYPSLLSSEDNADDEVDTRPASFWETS
T1 sequence (P35968 20-1356): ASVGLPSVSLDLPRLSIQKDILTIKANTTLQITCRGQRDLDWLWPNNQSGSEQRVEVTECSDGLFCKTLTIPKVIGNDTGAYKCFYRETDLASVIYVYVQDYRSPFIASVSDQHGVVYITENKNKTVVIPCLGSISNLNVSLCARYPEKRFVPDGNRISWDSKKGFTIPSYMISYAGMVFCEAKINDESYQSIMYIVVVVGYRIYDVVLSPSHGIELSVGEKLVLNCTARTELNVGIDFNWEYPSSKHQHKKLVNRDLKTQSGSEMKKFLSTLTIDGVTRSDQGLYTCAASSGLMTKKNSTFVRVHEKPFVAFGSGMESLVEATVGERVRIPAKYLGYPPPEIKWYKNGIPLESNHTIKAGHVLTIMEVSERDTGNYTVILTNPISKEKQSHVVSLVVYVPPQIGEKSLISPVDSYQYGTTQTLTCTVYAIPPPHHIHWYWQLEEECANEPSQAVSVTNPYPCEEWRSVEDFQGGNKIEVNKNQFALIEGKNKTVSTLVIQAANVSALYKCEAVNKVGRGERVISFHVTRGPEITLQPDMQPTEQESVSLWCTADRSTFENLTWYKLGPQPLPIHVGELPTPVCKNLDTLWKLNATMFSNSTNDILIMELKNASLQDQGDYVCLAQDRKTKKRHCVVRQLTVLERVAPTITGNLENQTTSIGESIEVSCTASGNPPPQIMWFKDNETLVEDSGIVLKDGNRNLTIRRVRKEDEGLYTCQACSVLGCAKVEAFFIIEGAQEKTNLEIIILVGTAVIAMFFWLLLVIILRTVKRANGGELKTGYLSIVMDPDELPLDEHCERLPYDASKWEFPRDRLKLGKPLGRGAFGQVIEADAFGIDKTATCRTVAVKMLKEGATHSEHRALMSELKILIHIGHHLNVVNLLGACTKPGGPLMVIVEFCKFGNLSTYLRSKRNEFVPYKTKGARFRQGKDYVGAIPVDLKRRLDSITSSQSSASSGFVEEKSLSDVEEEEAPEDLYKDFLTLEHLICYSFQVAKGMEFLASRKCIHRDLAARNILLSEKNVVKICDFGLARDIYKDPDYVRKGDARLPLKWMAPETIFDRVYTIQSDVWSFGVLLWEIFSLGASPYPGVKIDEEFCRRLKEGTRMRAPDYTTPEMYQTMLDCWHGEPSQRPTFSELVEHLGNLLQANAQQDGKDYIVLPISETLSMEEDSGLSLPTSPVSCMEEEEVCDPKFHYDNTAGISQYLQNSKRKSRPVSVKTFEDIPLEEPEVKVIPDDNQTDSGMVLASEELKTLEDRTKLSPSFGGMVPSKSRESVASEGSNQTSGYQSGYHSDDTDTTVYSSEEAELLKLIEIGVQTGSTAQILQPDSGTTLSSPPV

Kd (KDR (h)) [nM]	Kd (c-Met (h)) [nM]	clearance (CL) after iv dosing ([1]; 2 mg/kg) [mL/min/kg]	F ([1]; iv dose 2 mg/kg) [%]	AUC(0-t) ([1]; 2 mg/kg) [ng·h/mL]	half-life ([1]; 2 mg/kg) [h]	Vd ([1]; 2 mg/kg) [L/kg]	Compound	other results
26	16						Cc1c(C(=O)Nc2ccc(Oc3ccnc(N)c3Cl)cn2)c(=O)n(-c2ccccc2)n1C [Ex. 19, N-(5-((2-amino-3-chloropyridin-4-yl)oxy)pyridin-2-yl)-1,5-dimethyl-3-oxo-2-phenyl-2,3-dihydro-1H-pyrazole-4-carboxamide]	TGI % (on last day of dosing) (U87MG glioblastoma cells; 6 mg/kg, 12 days): 22%; TGI % (on last day of dosing) (U87MG glioblastoma cells; 20 mg/kg, 12 days): 49%; TGI % (on last day of dosing) (U87MG glioblastoma cells; 60 mg/kg, 12 days): 103%
1800	200						Cc1c(C(=O)Nc2ccc(Oc3ccnc(N)c3)cn2)c(=O)n(-c2ccccc2)n1C [Ex. 16, N-(5-((2-aminopyridin-4-yl)oxy)pyridin-2-yl)-1,5-dimethyl-3-oxo-2-phenyl-2,3-dihydro-1H-pyrazole-4-carboxamide]	
1100	120						CC(=O)Nc1nccc(Oc2ccc(NC(=O)c3c(C)n(C)n(-c4ccccc4)c3=O)cc2)c1Cl [Ex. 21, N-(4-((2-acetamido-3-chloropyridin-4-yl)oxy)phenyl)-1,5-dimethyl-3-oxo-2-phenyl-2,3-dihydro-1H-pyrazole-4-carboxamide]	
1600	620						CC(=O)Nc1nccc(Oc2ccc(NC(=O)c3c(C)n(C)n(-c4ccccc4)c3=O)nc2)c1Cl [Ex. 20, N-(5-((2-acetamido-3-chloropyridin-4-yl)oxy)pyridin-2-yl)-1,5-dimethyl-3-oxo-2-phenyl-2,3-dihydro-1H-pyrazole-4-carboxamide]	
13	5.1	0.5	69.7	56600	4.4	0.18	CC(=O)Nc1cc(Oc2ccc(NC(=O)c3c(C)n(C)n(-c4ccccc4)c3=O)cc2F)ccn1 [Ex. 23, N-(4-((2-acetamidopyridin-4-yl)oxy)-3-fluorophenyl)-1,5-dimethyl-3-oxo-2-phenyl-2,3-dihydro-1H-pyrazole-4-carboxamide]	

The next lines start with the compound.

Compound	Kd (KDR (h)) [nM]	Kd (c-Met (h)) [nM]	clearance (CL) after iv dosing ([1]; 2 mg/kg) [mL/min/kg]	F ([1]; iv dose 2 mg/kg) [%]	AUC(0-t) ([1]; 2 mg/kg) [ng·h/mL]	half-life ([1]; 2 mg/kg) [h]	Vd ([1]; 2 mg/kg) [L/kg]	other results
Cc1c(C(=O)Nc2cc(F)c(Oc3ccnc(N)c3)cc2F)c(=O)n(-c2ccccc2)n1C [Ex. 8, N-(4-((2-aminopyridin-4-yl)oxy)-2,5-difluorophenyl)-1,5-dimethyl-3-oxo-2-phenyl-2,3-dihydro-1H-pyrazole-4-carboxamide]	1500	4.8	10.2	85.1	3350	0.82	0.51	TGI % (on last day of dosing) (U87MG glioblastoma cells; 6 mg/kg, 14 days): 13%; TGI % (on last day of dosing) (U87MG glioblastoma cells; 20 mg/kg, 14 days): 25%; TGI % (on last day of dosing) (U87MG glioblastoma cells; 60 mg/kg, 14 days): 43%
CC(=O)Nc1cc(Oc2cc(F)c(NC(=O)c3c(C)n(C)n(-c4ccccc4)c3=O)cc2F)ccn1 [Ex. 9, N-(4-((2-acetamidopyridin-4-yl)oxy)-2,5-difluorophenyl)-1,5-dimethyl-3-oxo-2-phenyl-2,3-dihydro-1H-pyrazole-4-carboxamide]	160	1.8						clearance (CL) after iv dosing ([1]; 1 mg/kg): 0.67 mL/min/kg; F ([1]; iv dose 1 mg/kg): 61.2%; AUC(0-t) ([1]; 1 mg/kg): 23300 ng·h/mL; half-life ([1]; 1 mg/kg): 4.76 h; Vd ([1]; 1 mg/kg): 0.24 L/kg
Cc1c(C(=O)Nc2cc(F)c(Oc3ccnc(NC(=O)N4CCOCC4)c3)cc2F)c(=O)n(-c2ccccc2)n1C [Ex. 10, N-(4-(4-(1,5-dimethyl-3-oxo-2-phenyl-2,3-dihydro-1H-pyrazole-4-carboxamido)-2,5-difluorophenoxy)pyridin-2-yl)morpholine-4-carboxamide]								clearance (CL) after iv dosing ([1]; 1 mg/kg): 1.83 mL/min/kg; F ([1]; iv dose 1 mg/kg): 83.2%; AUC(0-t) ([1]; 1 mg/kg): 9640 ng·h/mL; half-life ([1]; 1 mg/kg): 4.6 h; Vd ([1]; 1 mg/kg): 0.53 L/kg
CC(=O)Nc1cc(Oc2ccc(NC(=O)c3c(C)n(C)n(-c4ccccc4)c3=O)c(Cl)c2)ccn1 [Ex. 13, N-(4-((2-acetamidopyridin-4-yl)oxy)-2-chlorophenyl)-1,5-dimethyl-3-oxo-2-phenyl-2,3-dihydro-1H-pyrazole-4-carboxamide]	570	18						
[2H]c1cc(Oc2ccnc(N)c2)ccc1NC(=O)c1c(C)n(C)n(-c2ccccc2)c1=O [Ex. 15, N-(4-((2-aminopyridin-4-yl)oxy)-2-deuteriumphenyl)-1,5-dimethyl-3-oxo-2-phenyl-2,3-dihydro-1H-pyrazole-4-carboxamide]	3800	180						
CC(=O)Nc1nccc(Oc2ccc(NC(=O)c3c(C)n(C)n(-c4ccccc4)c3=O)cc2F)c1Cl [Ex. 4, N-(4-((2-acetamido-3-chloropyridin-4-yl)oxy)-3-fluorophenyl)-1,5-dimethyl-3-oxo-2-phenyl-2,3-dihydro-1H-pyrazole-4-carboxamide]	540	24						
Cc1c(C(=O)Nc2ccc(Oc3ccnc(N)c3)c(F)c2F)c(=O)n(-c2ccccc2)n1C [Ex. 5, N-(4-((2-aminopyridin-4-yl)oxy)-2,3-difluorophenyl)-1,5-dimethyl-3-oxo-2-phenyl-2,3-dihydro-1H-pyrazole-4-carboxamide]	3300	37	31.2	19.1	1080	0.31	0.53	
Cc1c(C(=O)Nc2ccc(Oc3ccnc(N)c3)cc2Cl)c(=O)n(-c2ccccc2)n1C [Ex. 12, N-(4-((2-aminopyridin-4-yl)oxy)-2-chlorophenyl)-1,5-dimethyl-3-oxo-2-phenyl-2,3-dihydro-1H-pyrazole-4-carboxamide]	19000	56	15.7	125.0	2120	1.56	0.69	
Cc1c(C(=O)Nc2cc(F)c(Oc3ccnc(N)c3Cl)cc2F)c(=O)n(-c2ccccc2)n1C [Ex. 11, N-(4-((2-amino-3-chloropyridin-4-yl)oxy)-2,5-difluorophenyl)-1,5-dimethyl-3-oxo-2-phenyl-2,3-dihydro-1H-pyrazole-4-carboxamide]	340	1.4	9.5	88.0	3340	2.9	1.17	
